ChEMBL document CHEMBL4024724, “Synthesis of new 3-(2-mercapto-4-oxo-4H-quinazolin-3-yl)-benzenesulfonamides with strong inhibition properties against the tumor associated carbonic anhydrases IX and XII” (Bioorg Med Chem, 2017)

Molecular target: Carbonic anhydrase 9 (Homo sapiens, UniProt Q16790)
Test: Inhibition of recombinant human carbonic anhydrase 9 incubated for 15 mins prior to testing by stopped flow CO2 hydration assay

## NS(=O)(=O)c1cccc(-n2c(S)nc3cc(Cl)ccc3c2=O)c1
  Ki: 15.4 nM

## COc1cccc2c(=O)n(-c3cccc(S(N)(=O)=O)c3)c(S)nc12
  Ki: 15.6 nM

## NS(=O)(=O)c1cccc(-n2c(S)nc3c(Br)cccc3c2=O)c1
  Ki: 4 nM

## NS(=O)(=O)c1cccc(-n2c(S)nc3ccc(Cl)cc3c2=O)c1
  Ki: 45.1 nM

## NS(=O)(=O)c1cccc(-n2c(S)nc3cc(Br)ccc3c2=O)c1
  Ki: 16.8 nM

## COc1cc2c(=O)n(-c3cccc(S(N)(=O)=O)c3)c(S)nc2c(OC)c1OC
  Ki: 20.1 nM

## NS(=O)(=O)c1cccc(-n2c(S)nc3cc(F)ccc3c2=O)c1
  Ki: 2.7 nM

## NS(=O)(=O)c1cccc(-n2c(S)nc3ccc(I)cc3c2=O)c1
  Ki: 1.5 nM

## COc1ccc2nc(S)n(-c3cccc(S(N)(=O)=O)c3)c(=O)c2c1
  Ki: 13 nM

## NS(=O)(=O)c1cccc(-n2c(S)nc3ccccc3c2=O)c1
  Ki: 76.1 nM

## Cc1ccc2nc(S)n(-c3cccc(S(N)(=O)=O)c3)c(=O)c2c1
  Ki: 58.9 nM

## COc1cc2nc(S)n(-c3cccc(S(N)(=O)=O)c3)c(=O)c2cc1OC
  Ki: 19.8 nM

## Cc1cc2nc(S)n(-c3cccc(S(N)(=O)=O)c3)c(=O)c2cc1C
  Ki: 34.5 nM

## Cc1cccc2c(=O)n(-c3cccc(S(N)(=O)=O)c3)c(S)nc12
  Ki: 25.2 nM

## COc1ccc2c(=O)n(-c3cccc(S(N)(=O)=O)c3)c(S)nc2c1
  Ki: 25 nM

## NS(=O)(=O)c1cccc(-n2c(S)nc3c(Cl)cccc3c2=O)c1
  Ki: 9.5 nM

## NS(=O)(=O)c1cccc(-n2c(S)nc3ccc(F)cc3c2=O)c1
  Ki: 4.4 nM
